Experimental data as given in patent EP2518054A1, “AMIDE COMPOUND” (Takeda Pharmaceutical Company Limited, priority 2009, dated 2011).

biological target: T1, human GPR52 (Homo sapiens, UniProt Q9Y2T5); experiment: Increase of intracellular cAMP concentration in human GPR52-expressing CHO cell (AlphaScreen cAMP assay); type: cell-based; settings: 1µM test compound; 100% = cAMP with 1 µM Reference Example 79, 0% = DMSO; human GPR52-expressing CHO(dhfr-) cells, 37°C, 30 min
T1 construct: expressed in transfected cells; host or cells: CHO(dhfr-) cells
Description: Increase of intracellular cAMP concentration in human GPR52-expressing CHO cell
Using OptiPlate-384 (PerkinElmer Inc.), 1×10^4 human GPR52-expressing CHO(dhfr-) cells were incubated together with various concentration(10^-5µM - 10µm) of a test compound in an assay buffer (30 µL, HBSS (containing Ca^2+ and Mg^2+), 0.5% BSA, 100 µM IBMX, 100 µM Ro20-1724, 5 mM HEPES (pH 7.55)) at 37°C for 30 min. Thereafter, according to the protocol of AlphaScreen CAMP Assay Kit (PerkinElmer Inc.), the intracellular cAMP concentration was measured by EnVision (PerkinElmer Inc.). The GPR52 agonist activity was calculated, assuming the intracellular cAMP concentration in the presence of […] N-(2-hydroxyethyl)-3-[2-[3-(trifluoromethyl)benzyl]-1-benzofuran-4-yl]benzamide (Reference Example 79) to be 100% and assuming the intracellular cAMP concentration when DMSO was added instead of the test compound to be 0%.

T1 sequence (Q9Y2T5 whole entry): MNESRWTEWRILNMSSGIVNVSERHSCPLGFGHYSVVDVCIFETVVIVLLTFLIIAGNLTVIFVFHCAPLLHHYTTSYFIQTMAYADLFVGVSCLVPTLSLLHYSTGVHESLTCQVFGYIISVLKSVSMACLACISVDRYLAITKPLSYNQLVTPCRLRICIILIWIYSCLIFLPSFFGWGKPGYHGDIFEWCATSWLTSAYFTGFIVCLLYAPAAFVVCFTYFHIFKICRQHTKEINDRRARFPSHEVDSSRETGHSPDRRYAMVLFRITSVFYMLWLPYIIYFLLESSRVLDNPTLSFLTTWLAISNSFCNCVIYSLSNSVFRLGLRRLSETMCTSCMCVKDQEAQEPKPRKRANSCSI

`Cc1nc(-c2cccc3nn(Cc4cc(F)cc(C(F)(F)F)c4)cc23)sc1C(N)=O` [Example 86, 2-[2-[3-fluoro-5-(trifluoromethyl)benzyl]-2H-indazol-4-yl]-4-methyl-1,3-thiazole-5-carboxamide] was tested, and the “GPR52 agonist activity (%)” value was 102%.

same assay, conditions: CHO, 1µM test compound; 100% = cAMP with 1 µM Reference Example 79, 0% = DMSO; human GPR52-expressing CHO(dhfr-) cells, 37°C, 30 min; read-out: GPR52 agonist activity (%)

In order of falling activity at 1 µM:
1. Cc1nn(-c2ccc(F)c3cc(Cc4cccc(C(F)(F)F)c4)sc23)c(CO)c1C(=O)NCCO [Example 71, 1-[4-fluoro-2-[3-(trifluoromethyl)benzyl]-1-benzothiophen-7-yl]-N-(2-hydroxyethyl)-5-(hydroxymethyl)-3-methyl-1H-pyrazole-4-carboxamide]  114%
2. Cc1nn(-c2ccc(F)c3cc(Cc4cccc(C(F)(F)F)c4)sc23)c(C)c1C(=O)NCCO [Example 62, 1-[4-fluoro-2-[3-(trifluoromethyl)benzyl]-1-benzothiophen-7-yl]-N-(2-hydroxyethyl)-3,5-dimethyl-1H-pyrazole-4-carboxamide]  105%
3. Cc1nn(-c2cccc3nn(Cc4cc(F)cc(Cl)c4)cc23)c(C)c1C(=O)NCCO [Example 82, 1-[2-(3-chloro-5-fluorobenzyl)-2H-indazol-4-yl]-N-(2-hydroxyethyl)-3,5-dimethyl-1H-pyrazole-4-carboxamide]  105%
4. Cc1nn(-c2cccc3nn(Cc4cc(F)cc(C(F)(F)F)c4)cc23)c(C)c1C(=O)NCCO [Example 84, 1-[2-[3-fluoro-5-(trifluoromethyl)benzyl]-2H-indazol-4-yl]-N-(2-hydroxyethyl)-3,5-dimethyl-1H-pyrazole-4-carboxamide]  105%
5. Cc1nn(-c2cccc3nn(Cc4cccc(C(F)(F)F)c4)cc23)c(C)c1C(N)=O [Example 78, 3,5-dimethyl-1-[2-[3-(trifluoromethyl)benzyl]-2H-indazol-4-yl]-1H-pyrazole-4-carboxamide]  104%
6. Cc1nn(-c2cccc3nn(Cc4cc(F)cc(C(F)(F)F)c4)cc23)c(C)c1C(N)=O [Example 83, 1-[2-[3-fluoro-5-(trifluoromethyl)benzyl]-2H-indazol-4-yl]-3,5-dimethyl-1H-pyrazole-4-carboxamide]  104%
7. Cc1nn(-c2cccc3nn(Cc4cccc(C(F)(F)F)c4)cc23)c(C)c1C(=O)NCCO [Example 79, N-(2-hydroxyethyl)-3,5-dimethyl-1-[2-[3-(trifluoromethyl)benzyl]-2H-indazol-4-yl]-1H-pyrazole-4-carboxamide]  102%
8. Cc1nn(-c2cccc3nn(Cc4cc(F)cc(Cl)c4)cc23)c(C)c1C(N)=O [Example 81, 1-[2-(3-chloro-5-fluorobenzyl)-2H-indazol-4-yl]-3,5-dimethyl-1H-pyrazole-4-carboxamide]  102%
9. Cc1nn(-c2cccc3oc(Cc4cccc(C(F)(F)F)c4)cc23)c(C)c1C(=O)NCCO [Example 75, N-(2-hydroxyethyl)-3,5-dimethyl-1-[2-[3-(trifluoromethyl)benzyl]-1-benzofuran-4-yl]-1H-pyrazole-4-carboxamide]  101%
10. Cc1nn(-c2ccc(F)c3cc(Cc4cc(F)cc(Cl)c4)sc23)c(C)c1C(=O)NCCO [Example 60, 1-[2-(3-chloro-5-fluorobenzyl)-4-fluoro-1-benzothiophen-7-yl]-N-(2-hydroxyethyl)-3,5-dimethyl-1H-pyrazole-4-carboxamide]  99%
11. Cc1nn(-c2ccc(F)c3cc(Cc4cc(F)cc(Cl)c4)sc23)c(CO)c1C(=O)NCC(N)=O [Example 89, N-(2-amino-2-oxoethyl)-1-[2-(3-chloro-5-fluorobenzyl)-4-fluoro-1-benzothiophen-7-yl]-5-(hydroxymethyl)-3-methyl-1H-pyrazole-4-carboxamide]  99%
12. Cc1nn(-c2cccc3oc(Cc4cccc(C(F)(F)F)c4)cc23)c(C)c1C(=O)NCC(N)=O [Example 74, N-(2-amino-2-oxoethyl)-3,5-dimethyl-1-[2-[3-(trifluoromethyl)benzyl]-1-benzofuran-4-yl]-1H-pyrazole-4-carboxamide]  98%
13. Cc1nn(-c2cccc3nn(Cc4cccc(C(F)(F)F)c4)cc23)c(C)c1C(=O)NCC(N)=O [Example 80, N-(2-amino-2-oxoethyl)-3,5-dimethyl-1-[2-[3-(trifluoromethyl)benzyl]-2H-indazol-4-yl]-1H-pyrazole-4-carboxamide]  98%
14. Cc1nn(-c2cccc3cc(Cc4cccc(C(F)(F)F)c4)sc23)c(CO)c1C(N)=O [Example 64, 5-(hydroxymethyl)-3-methyl-1-[2-[3-(trifluoromethyl)benzyl]-1-benzothiophen-7-yl]-1H-pyrazole-4-carboxamide]  97%
15. Cc1nn(-c2ccc(F)c3cc(Cc4cccc(C(F)(F)F)c4)sc23)c(CO)c1C(N)=O [Example 73, 1-[4-fluoro-2-[3-(trifluoromethyl)benzyl]-1-benzothiophen-7-yl]-5-(hydroxymethyl)-3-methyl-1H-pyrazole-4-carboxamide]  97%
16. COCCNC(=O)c1c(C)nn(-c2cccc3cc(Cc4cc(F)cc(Cl)c4)sc23)c1C [Example 57, 1-[2-(3-chloro-5-fluorobenzyl)-1-benzothiophen-7-yl]-N-(2-methoxyethyl)-3,5-dimethyl-1H-pyrazole-4-carboxamide]  96%
17. Cc1nn(-c2ccc(F)c3cc(Cc4cccc(C(F)(F)F)c4)sc23)c(CO)c1C(=O)NCC(N)=O [Example 72, N-(2-amino-2-oxoethyl)-1-[4-fluoro-2-[3-(trifluoromethyl)benzyl]-1-benzothiophen-7-yl]-5-(hydroxymethyl)-3-methyl-1H-pyrazole-4-carboxamide]  96%
18. Cc1nn(-c2cccc3oc(Cc4cccc(C(F)(F)F)c4)cc23)c(C)c1C(N)=O [Example 76, 3,5-dimethyl-1-[2-[3-(trifluoromethyl)benzyl]-1-benzofuran-4-yl]-1H-pyrazole-4-carboxamide]  95%
19. Cc1nn(-c2cccc3cc(Cc4cccc(C(F)(F)F)c4)sc23)c(CO)c1C(=O)NCC(N)=O [Example 63, N-(2-amino-2-oxoethyl)-5-(hydroxymethyl)-3-methyl-1-[2-[3-(trifluoromethyl)benzyl]-1-benzothiophen-7-yl]-1H-pyrazole-4-carboxamide]  94%
20. Cc1nn(-c2ccc(F)c3cc(Cc4cc(F)cc(Cl)c4)sc23)c(C)c1C(=O)NCC(N)=O [Example 59, N-(2-amino-2-oxoethyl)-1-[2-(3-chloro-5-fluorobenzyl)-4-fluoro-1-benzothiophen-7-yl]-3,5-dimethyl-1H-pyrazole-4-carboxamide]  93%
21. Cc1nn(-c2ccc(F)c3cc(Cc4cccc(C(F)(F)F)c4)sc23)c(C)c1C(N)=O [Example 61, 1-[4-fluoro-2-[3-(trifluoromethyl)benzyl]-1-benzothiophen-7-yl]-3,5-dimethyl-1H-pyrazole-4-carboxamide]  93%
22. O=C(NCCO)c1sc(-c2cccc3cc(Cc4cccc(C(F)(F)F)c4)sc23)nc1C(F)(F)F [Example 87, N-(2-hydroxyethyl)-4-(trifluoromethyl)-2-[2-[3-(trifluoromethyl)benzyl]-1-benzothiophen-7-yl]-1,3-thiazole-5-carboxamide]  92%
23. COCc1c(C(=O)NCCO)c(C)nn1-c1cccc2cc(Cc3cccc(C(F)(F)F)c3)sc12 [Example 70, N-(2-hydroxyethyl)-5-(methoxymethyl)-3-methyl-1-[2-[3-(trifluoromethyl)benzyl]-1-benzothiophen-7-yl]-1H-pyrazole-4-carboxamide]  91%
24. COCCNC(=O)c1c(C)nn(-c2cccc3cc(Cc4cccc(C(F)(F)F)c4)sc23)c1CO [Example 66, 5-(hydroxymethyl)-N-(2-methoxyethyl)-3-methyl-1-[2-[3-(trifluoromethyl)benzyl]-1-benzothiophen-7-yl]-1H-pyrazole-4-carboxamide]  89%
25. Cc1c(C(=O)NCC(N)=O)c(CO)nn1-c1cccc2cc(Cc3cccc(C(F)(F)F)c3)sc12 [Example 68, N-(2-amino-2-oxoethyl)-3-(hydroxymethyl)-5-methyl-1-[2-[3-(trifluoromethyl)benzyl]-1-benzothiophen-7-yl]-1H-pyrazole-4-carboxamide]  88%
26. Cc1nc(-c2cccc3nn(Cc4cc(F)cc(C(F)(F)F)c4)cc23)sc1C(N)=O [Example 86, 2-[2-[3-fluoro-5-(trifluoromethyl)benzyl]-2H-indazol-4-yl]-4-methyl-1,3-thiazole-5-carboxamide]  85%
27. Cc1c(C(=O)NCCO)c(CO)nn1-c1cccc2cc(Cc3cccc(C(F)(F)F)c3)sc12 [Example 67, N-(2-hydroxyethyl)-3-(hydroxymethyl)-5-methyl-1-[2-[3-(trifluoromethyl)benzyl]-1-benzothiophen-7-yl]-1H-pyrazole-4-carboxamide]  83%
28. O=C(NCCO)c1sc(-c2cccc3nn(Cc4cccc(C(F)(F)F)c4)cc23)nc1C(F)(F)F [Example 88, N-(2-hydroxyethyl)-4-(trifluoromethyl)-2-[2-[3-(trifluoromethyl)benzyl]-2H-indazol-4-yl]-1,3-thiazole-5-carboxamide]  83%
29. Cc1c(C(N)=O)c(CO)nn1-c1cccc2cc(Cc3cccc(C(F)(F)F)c3)sc12 [Example 69, 3-(hydroxymethyl)-5-methyl-1-[2-[3-(trifluoromethyl)benzyl]-1-benzothiophen-7-yl]-1H-pyrazole-4-carboxamide]  78%

same assay, conditions: concentration of the test compound at which it shows 50% activity; human GPR52-expressing CHO(dhfr-) cells; read-out: GPR52 agonist activity EC50

In order of rising EC50:
1. Cc1nn(-c2cccc3cc(Cc4cccc(C(F)(F)F)c4)sc23)c(CO)c1C(N)=O [Example 64, 5-(hydroxymethyl)-3-methyl-1-[2-[3-(trifluoromethyl)benzyl]-1-benzothiophen-7-yl]-1H-pyrazole-4-carboxamide]  18 nM
2. Cc1nn(-c2ccc(F)c3cc(Cc4cccc(C(F)(F)F)c4)sc23)c(CO)c1C(=O)NCCO [Example 71, 1-[4-fluoro-2-[3-(trifluoromethyl)benzyl]-1-benzothiophen-7-yl]-N-(2-hydroxyethyl)-5-(hydroxymethyl)-3-methyl-1H-pyrazole-4-carboxamide]  27 nM
3. Cc1nn(-c2cccc3oc(Cc4cccc(C(F)(F)F)c4)cc23)c(C)c1C(=O)NCCO [Example 75, N-(2-hydroxyethyl)-3,5-dimethyl-1-[2-[3-(trifluoromethyl)benzyl]-1-benzofuran-4-yl]-1H-pyrazole-4-carboxamide]  30 nM
4. Cc1c(C(=O)NCC(N)=O)c(CO)nn1-c1cccc2cc(Cc3cccc(C(F)(F)F)c3)sc12 [Example 68, N-(2-amino-2-oxoethyl)-3-(hydroxymethyl)-5-methyl-1-[2-[3-(trifluoromethyl)benzyl]-1-benzothiophen-7-yl]-1H-pyrazole-4-carboxamide]  170 nM
